Assay results from patent US20250195628A1, “ANALYTICAL METHOD AND THERAPEUTICAL AGENT FOR USE IN COMBINATION WITH L-ASPARAGINASE IN TUMOUR THERAPY” (Medizinische Hochschule Hannover, priority 2022, published 2025).

Tests used:
T-ALL cells (CCRF-CEM) = assay: Cell viability after UBR2 knock-out by sgRNA and L-asparaginase treatment, CCRF-CEM; assay type: cell-based, human; settings: 100 U/L L-asparaginase, 48 h, versus sgAAVS1, FIG. 4B
Protocol: (§1) Cas9-expressing Jurkat cells or T-ALL cells (CCRF-CEM) were treated with sgRNA that specifically knocked-out UBR2 (sgUBR2 #3, […], SEQ ID NO: 3) or control sgRNA directed against the safe harbor control locus AAVS1 (sgAAVS1, 5′-[…]-3′, SEQ ID NO: 4), and after knock-out of UBR2 cells were incubated under cell-culture conditions with 100 U/L L-asparaginase (Asp) or PBS as control agent (Vehicle). Cell viability was analysed by Trypan blue exclusion after 48 h of incubation.
(§2) FIG. 4A for Jurkat cells, FIG. 4B for the T-ALL cells depict the cell viability normalized to the cell viability for Vehicle. […] P-values reflect the comparison of control inhibitor (AAVS1) and inhibitor of UBR2 (sgUBR2), calculated using a two-way ANOVA with Sidak's adjustments for multiple comparisons.

[1] = system: Cas9-expressing Jurkat cells; assay: Cell viability after UBR2 knock-out by sgRNA and L-asparaginase treatment, Jurkat; assay type: cell-based, human; settings: 100 U/L L-asparaginase, 48 h, versus sgAAVS1, FIG. 4A
Protocol: as §1, §2

sgUBR2 #3: sgRNA that specifically knocked-out UBR2, GAAACTTGAAATAGTCTAAA, SEQ ID NO: 3 (listed as DNA, chemistry not given here)
effect on sensitivity for L-asparaginase (cell viability normalized to Vehicle) (T-ALL cells (CCRF-CEM)): increased the sensitivity
effect on sensitivity for L-asparaginase (cell viability normalized to Vehicle) [1]: increased the sensitivity
